Reference: US9024018B2, “3-substituted-8-substituted-3H-imidazo[5,1-d][1,2,3,5]tetrazin-4-one compounds and their use” (Pharminox Limited, priority 2009, dated 2015)

Columns and labels:
Assay type in all cases: cell-based
SNB19M = assay: MTT assay for 7-day toxicity, SNB19M glioma cells (stably transfected with MGMT, MGMT+); conditions: Glioma cell, 168 h, 7 day MTT assay, glioma line SNB19M
Protocol: (§1) The cell culture techniques were carried out in a Class II microbiological safety cabinet which was swabbed with 70% IMS in distilled water before each use. Glioma cells were routinely cultured in Costar tissue culture flasks in RPMI 1640 liquid medium (containing 0.3 g/L L-glutamine and 2 g/L sodium bicarbonate) supplemented with 10% heat inactivated FBS (55-59° C.) for 1 hour to denature complement proteins which would otherwise evoke a cellular immune response resulting in cell lysis, 1% non-essential amino acids, 50 μg/mL gentamicin and 400 μg/mL G418 (vector selection reagent). Colorectal and melanoma cells were maintained in RPMI 1640 supplemented with 10% FBS. MRC-5 cells were cultured in EMEM+10% FBS, 1% pen/strep, 1% non-essential amino acids, 1% HEPES (1M) and 1% sodium bicarbonate.
(§2) Cells were grown at 37° C. in a humidified incubator in an atmosphere comprising 95% air/5% CO2. Cells were sub-cultured when growth exceeded approximately 80% confluence, normally twice weekly. The medium was aspirated from the flask and approximately 0.8 mL trypsin-EDTA 1× solution added. The cells were re-incubated at 37° C. until they had visibly detached from the flask. The cells were re-suspended in 5 mL medium and 0.5-1 mL was transferred to a new flask (25 cm^2) with 7 mL culture medium. The cells were further incubated at 37° C. To minimize phenotypic drift, cells were disposed of once they had been subcultured 30 times. New batches of cells were thawed rapidly in 37° C. water bath once taken from liquid nitrogen storage and re-suspended in 10 mL of culture medium in a 25 cm^2 flask. Cells were passaged twice to allow normal growth to resume prior to use in experiments.
(§3) Most test compounds, including temozolomide, were prepared as 100 mM stock solutions in DMSO and stored at −20° C. for not more than 6 months.
(§4) MTT Assay for 7-Day Toxicity Assay
(§5) This assay was first described in Mosmann, T., 1983, “Rapid colorimetric assay for cellular growth and survival: Application to proliferation and cytotoxicity assays”, Journal of Immunological Methods, Vol. 65, Nos. 1-2, pp. 55-63.
(§6) Glioma cell lines, SNB19 and U373, both stably transfected with MGMT (i.e., SNB19M and U373M) or their respective vector controls (i.e., SNB19V and U373V); colorectal carcinoma cell lines, HCT116, HT29, and DLD1; melanoma cell line, SKMEL-28; breast cell line, MCF-7; and normal human fetal lung fibroblast cell line, MRC-5; were used at 60-80% confluence, during the logarithmic phase of growth.
(§7) Following harvesting with trypsin/EDTA, cells in suspension were gently syringed through a 23 gauge needle to obtain a near-single cell suspension. Cells were then seeded into 96-well plates at the desired density in 180 μL culture medium if only one test compound was to be added, or in 160 μL if two test compounds were to be added in combination. Cells were allowed to attach overnight by incubation at 37° C. in 95% air/5% CO2. For the 7 day assay, the cell seeding densities for the different cell lines were as follows: SNB19V, SNB19M: 650 cells/well; U373V, U373M: 650 cells/well; SNB19VR, U373VR: 650 cells/well; HCT116, DLD-1, SKMEL-28, MRC-5, MCF-7: 400 cells/well.
(§8) The two peripheral lanes of each plate were used as blank wells (cell free) and filled with 200 μL of medium in order to minimise medium evaporation from the plate. A separate time zero (T0) plate was set up alongside other plates. Serial dilutions in tissue culture medium of a 100 mM stock of test compound were prepared immediately before each assay to ten times the final concentrations required. 20 μL was added to each well (200 μL total media per well) to achieve final concentrations of 0.5 μM, 1 μM, 5 μM, 10 μM, 50 μM, 100 μM, 500 μM, and 1000 μM. A minimum of four wells received the same test compound concentration. To control wells, including those in the T0 plate, 20 μL of medium was added. […]

U373V = assay: MTT assay for 7-day toxicity, U373V glioma cells (vector control, MGMT-); conditions: Glioma cell, 168 h, 7 day MTT assay, glioma line U373V
Protocol: as §1, §2, §3, §4, §5, §6, §7, §8

U373M = assay: MTT assay for 7-day toxicity, U373M glioma cells (stably transfected with MGMT, MGMT+); conditions: 7 day MTT assay, glioma line U373M
Protocol: as §1, §2, §3, §4, §5, §6, §7, §8

SNB19V = assay: MTT assay for 7-day toxicity, SNB19V glioma cells (vector control, MGMT-); conditions: Glioma cell, 168 h, 7 day MTT assay, glioma line SNB19V
Protocol: as §1, §2, §3, §4, §5, §6, §7, §8

Structure (SMILES)	GI50 (SNB19M)	GI50 (U373V)	GI50 (U373M; Glioma cell, 168 h)	GI50 (SNB19V)	GI50 (U373M)
CSCn1nnc2c(-c3nc(-c4cccs4)cs3)ncn2c1=O [WW-034, 3-(methylthiomethyl)-8-(4-(thiophen-2-yl)thiazol-2-yl)imidazo[5,1-d][1,2,3,5]tetrazin-4(3H)-one]	< 70 µM	< 75 µM	< 60 µM	–	–
COCn1nnc2c(-c3nc(-c4ccc5c(c4)OCO5)cs3)ncn2c1=O [WW-032]	< 70 µM	< 75 µM	< 60 µM	–	–
Cn1nnc2c(-c3nnc(-c4ccccc4)o3)ncn2c1=O [WW-041, 3-Methyl-8-(5-phenyl-1,3,4-oxadiazol-2-yl)imidazo[5,1-d][1,2,3,5]tetrazin-4(3H)-one]	–	< 75 µM	–	< 45 µM	–
CSCn1nnc2c(-c3nc(-c4ccccc4)cs3)ncn2c1=O [WW-030, 3-(Methylthiomethyl)-8-(4-phenylthiazol-2-yl)imidazo[5,1-d][1,2,3,5]tetrazin-4(3H)-one]	< 70 µM	< 75 µM	< 60 µM	–	–
C[S+]([O-])Cn1nnc2c(-c3nc4ccccc4o3)ncn2c1=O (centres unmarked) [WW-056, 8-(Benzo[d]oxazol-2-yl)-3-(methylsulfinylmethyl)imidazo[5,1-d][1,2,3,5]tetrazin-4(3H)-one]	< 70 µM	–	–	< 45 µM	–
Cn1nnc2c(C(=O)NO)ncn2c1=O [RR-001, N-Hydroxy-3-methyl-4-oxo-3,4-dihydroimidazo[5,1-d][1,2,3,5]tetrazine-8-carboxamide]	87.1 µM	–	–	41 µM	–
C[S+]([O-])Cn1nnc2c(-c3nc4ccccc4s3)ncn2c1=O (centres unmarked) [WW-061, 8-(Benzo[d]thiazol-2-yl)-3-(methylsulfinylmethyl)imidazo[5,1-d][1,2,3,5]tetrazin-4(3H)-one]	< 70 µM	–	–	< 45 µM	–
CSCn1nnc2c(-c3nc(-c4ccsc4)cs3)ncn2c1=O [WW-035, 3-(methylthiomethyl)-8-(4-(thiophen-3-yl)thiazol-2-1/1)imidazo[5,1-d][1,2,3,5]tetrazin-4(3H)-one]	< 70 µM	< 75 µM	< 60 µM	–	–
C#CCn1nnc2c(-c3nc4ccccc4s3)ncn2c1=O [WW-059, 8-(Benzo[d]thiazol-2-yl)-3-(prop-2-ynyl)imidazo[5,1-d][1,2,3, 5]tetrazin-4(3H)-one]	< 70 µM	–	–	< 45 µM	–
Cn1nnc2c(-c3nnc(Nc4ccccc4)o3)ncn2c1=O [WW-044, 3-Methyl-8-(5-(phenylamino)-1,3,4-oxadiazol-2-yl)imidazo[5,1-d][1,2,3,5]tetrazin-4(3H)-one]	–	< 75 µM	–	–	–
C#CCn1nnc2c(-c3nc(-c4cccs4)cn3C)ncn2c1=O [WW-053, 8-(1-Methyl-4-(thiophen-2-yl)-1H-imidazol-2-yl)-3-(prop-2-ynyl)imidazo[5,1-d][1,2,3,5]tetrazin-4(3H)-one]	< 70 µM	–	–	< 45 µM	–
C#CCn1nnc2c(-c3nc(-c4ccc(Br)cc4)cs3)ncn2c1=O [WW-021]	< 70 µM	< 75 µM	< 60 µM	–	–
COCn1nnc2c(-c3nc4ccccc4[nH]3)ncn2c1=O [WW-064, 8-(1H-Benzo[d]imidazol-2-yl)-3-(methoxymethyl)imidazo[5,1-d][1,2,3,5]tetrazin-4(3H)-one]	< 70 µM	–	–	< 45 µM	–
C#CCn1nnc2c(-c3ncc(-c4ccccc4)o3)ncn2c1=O [WW-040]	< 70 µM	< 75 µM	< 60 µM	–	–
C#CCn1nnc2c(-c3nc4ccccc4n3C)ncn2c1=O [WW-065, 8-(1-Methyl-1H-benzo[d]imidazol-2-yl)-3-(prop-2-ynyl)imidazo[5,1-d][1,2,3,5]tetrazin-4(3H)-one]	< 70 µM	–	–	< 45 µM	–
COCn1nnc2c(-c3nc(-c4ccncc4)cs3)ncn2c1=O [WW-019, 3-(Methoxymethyl)-8-(4-(pyridin-4-yl)thiazol-2-yl)imidazo[5,1-d][1,2,3,5]tetrazin-4(3H)-one]	< 70 µM	–	–	< 45 µM	–

Structure (SMILES)	GI50 (SNB19M)	GI50 (U373V)	GI50 (U373M; Glioma cell, 168 h)	GI50 (SNB19V)	GI50 (U373M)
CNc1nnc(-c2ncn3c(=O)n(C)nnc23)o1 [WW-045, 3-Methyl-8-(5-(methylamino)-1,3,4-oxadiazol-2-yl)imidazo[5,1-d][1,2,3,5]tetrazin-4(3H)-one]	–	< 75 µM	–	< 45 µM	–
Cn1nnc2c(-c3nc(-c4ccncc4)cs3)ncn2c1=O [WW-013]	< 70 µM	< 75 µM	< 60 µM	–	–
Cn1nnc2c(-c3nc(-c4cccs4)cs3)ncn2c1=O [WW-011, 3-Methyl-8-(4-(thiophen-2-yl)thiazol-2-yl)imidazo[5,1-d][1,2,3,5]tetrazin-4(3H)-one]	< 70 µM	< 75 µM	–	< 45 µM	–
Cn1nnc2c(-c3nc4ccccc4n3C)ncn2c1=O [WW-066, 3-Methyl-8-(1-methyl-1H-benzo[d]imidazol-2-yl)imidazo[5,1-d][1,2,3,5]tetrazin-4(3H)-one]	< 70 µM	–	–	< 45 µM	–
C[S+]([O-])Cn1nnc2c(-c3nnc(-c4ccccc4)o3)ncn2c1=O (centres unmarked) [WW-043, 3-(Methylsulfinylmethyl)-8-(5-phenyl-1,3,4-oxadiazol-2-yl)imidazo[5,1-d][1,2,3,5]tetrazin-4(3H)-one]	< 70 µM	–	–	< 45 µM	–
Cn1nnc2c(-c3nc(-c4nccs4)cs3)ncn2c1=O [WW-010, 8-(2,4′-Bithiazol-2′-yl)-3-methylimidazo[5,1-d][1,2,3,5]tetrazin-4(3H)-one]	< 70 µM	–	–	< 45 µM	–
COCn1nnc2c(-c3ncc(-c4ccc(Br)cc4)o3)ncn2c1=O [WW-039]	< 70 µM	< 75 µM	< 60 µM	–	–
COCn1nnc2c(-c3nc(-c4ccc(S(C)(=O)=O)cc4)cs3)ncn2c1=O [WW-027, 3-(Methoxymethyl)-8-(4-(4-(methylsulfonyl)phenyl)thiazol-2-yl)imidazo[5,1-d][1,2,3,5]tetrazin-4(3H)-one]	–	–	< 60 µM	–	33.1 µM
COCn1nnc2c(-c3nc4ccccc4o3)ncn2c1=O [WW-057]	< 70 µM	–	–	–	–
Cn1nnc2c(-c3nc(-c4ccc(Br)cc4)cs3)ncn2c1=O [WW-022, 8-(4-(4-Bromophenyl)thiazol-2-yl)-3-methylimidazo[5,1-d][1,2,3,5]tetrazin-4(3H)-one]	< 70 µM	–	–	< 45 µM	–
Cn1nnc2c(-c3nc4ccccc4o3)ncn2c1=O [WW-054, 8-(Benzo[d]oxazol-2-yl)-3-methylimidazo[5,1-d][1,2,3,5]tetrazin-4(3H)-one]	–	< 75 µM	–	< 45 µM	–
COCn1nnc2c(-c3nc(-c4cccs4)cs3)ncn2c1=O [WW-018, 3-(Methoxymethyl)-8-(4-(thiophen-2-yl)thiazol-2-yl)imidazo[5,1-d][1,2,3, 5]tetrazin-4(3H)-one]	< 70 µM	–	–	< 45 µM	–
COCn1nnc2c(-c3nc4ccccc4s3)ncn2c1=O [WW-060, 8-(Benzo[d]thiazol-2-yl)-3-(methoxymethyl)imidazo[5,1-d][1,2,3,5]tetrazin-4(3H)-one]	< 70 µM	–	–	< 45 µM	–
C#CCn1nnc2c(-c3nc(C(C)(C)C)cs3)ncn2c1=O [WW-020, 8-(4-tert-Butylthiazol-2-yl)-3-(prop-2-ynyl)imidazo[5,1-d][1,2,3,5]tetrazin-4(3H)-one]	< 70 µM	–	–	–	–
COCn1nnc2c(-c3nc(-c4ccsc4)cs3)ncn2c1=O [WW-017]	< 70 µM	–	–	< 45 µM	–
